Consider 1 molecule from patent US20230040597A1, “USE OF NICOLSAMIDE FORMULATIONS FOR ANTIVIRAL THERAPY” (priority 2020, published 2023).

≈ marks a conversion by molar mass, not a printed value. Like-named read-outs stand apart in the source and are kept apart here.

As a reminder, the Solubility is how much of the substance goes into solution per volume. A higher Solubility goes with a readily soluble substance. In general, EC50 refers to the midpoint of the concentration-response curve. One may read the inhibition as how much of the control response was suppressed.

Series [1] is classed as physicochemical. As for the experimental part: Saturation solubility of niclosamide was studied in the solvents, to know the highest concentration of niclosamide that can be solubilized, as depicted in table 6.
Heating and stirring improved solubilization of niclosamide in polyethylene glycol. […] In further formulation studies, drug substance concentration >7% w/w was desired, so 65° C. of temperature was used for solubilization of API.

For a further series, the system named is SARS-CoV-2. The series is described as follows: microbe, parasite or virus in culture. The class given is cell-based. The conditions noted are these: Severe acute respiratory syndrome coronavirus 2, Vero C1008; Vero E6 cells; reporter SARS-CoV-2 MOI of 0.1; luciferase at 24 h post-infection; 0.5% DMSO; read-out: antiviral EC50.
Series [2] in a line: Saturation solubility in buffers (shake flask method). The conditions noted are these: 0.1 N HCl, 0.01 N HCl, pH 3.0 and 4.0 acid phthalate buffer, pH 4.5 and 5.1 acetate buffer.
Series [3] in a line: Drug-excipient compatibility study (related substances of binary mixtures). The class given is physicochemical. As to the method: Proposed drug to excipient ratio was selected based on the function of the excipient and maximum concentration to be used. Drug and excipient binary mixtures were prepared by uniform mixing. The blends were packed in clear glass vials and the compatibility was evaluated in closed conditions. In the closed-vial study, the dry mix samples were filled in vials with screw stopper fitting covered with parafilm and stored at 40° C./75% RH, 25° C./60% RH and 2° C.-8° C. storage condition up to 4 weeks. Samples at 40° C./75% RH and 25° C./60% RH were checked for physical description and analyzed for related substances, initially, at 2 weeks and at 4 weeks. Ratio of drug substance to excipients in blend for the compatibility study, are as follows: a) niclosamide:gelling agents/mucoadhesive agents was 1:15; b) niclosamide:solvents/co-solvents was 1:5; c) niclosamide:pH adjusting agents/neutralizing agents was 1:1; and d) niclosamide: preservatives/anti-oxidants was 1:0.5. Summary of physical description and related substances analysis of binary mixtures of API & excipients at initial and 40° C./75% RH-4 weeks condition are presented below in Table 8.
The impurities detected were as follows: Impurity-1 (5-chloro salicylic acid); Impurity-2 (2-chloro-4-nitro aniline); Impurity-3 (N-(2-chloro-4-nitrophenyl)-2-hydroxybenzamide); Impurity-4 (3,5-dichloro-N-(2-chloro-4-nitrophenyl)-2-hydroxybenzamide); and Impurity-5 (3-chloro-N-(2-chloro-4-nitrophenyl)-2-hydroxybenzamide).

A further series relates to human sperm. The series is described as follows: Dose-dependent effect of niclosamide on sperm motility in fresh human semen. It is filed as cell-based. As to the method: FIG. 1 is a graph depicting the dose dependent effect of niclosamide dissolved in DMSO, on sperm motility. Fresh human semen samples were mixed with the different concentrations of niclosamide in vitro, followed by analysis of sperm motility within 2 minutes. The x-axis depicts the different concentrations of niclosamide mixed with the semen sample. The x-axis, from Left to Right: the gray bar depicts an untreated semen sample, the blue bar depicts a vehicle control, and the eight pink bars depict the increasing concentrations of niclosamide tested. […] The y-axis depicts the percentage (%) inhibition in sperm motility of each semen sample treated with a concentration of niclosamide o normalized to the sperm motility of a control sample. Change in sperm motility relative to control treated sample is shown as mean +/−standard error of the mean (S.E.M.) for the aggregate of individual experiments.
Sperm motility is a functional measurement of the sperm themselves. Sperm may be sampled directly from semen or from washed sperm samples, and assessed for motility either manually or by CASA (Computer Assisted Sperm Analysis) (Chapter 59—Male Reproductive System. Systems Toxicologic Pathology. Dianne M. Creasy, Robert E. Chapin, in Haschek and Rousseaux's Handbook of Toxicologic Pathology (Third Edition), 2013; Amann R P et al. Computer-assisted sperm analysis (CASA): capabilities and potential developments. Theriogenology. 2014 Jan. 1; 81(1):5-17).
Sperm motility (expressed as %) may be evaluated in duplicate within 1 h of semen collection, by counting moving and nonmoving sperm in several microscopic fields. […] In preferred embodiments, only complete spermatozoa (head with tail) are included in such counts. Slow-moving sperm (class B+C) can be easily and accurately counted compared with rapidly moving (class A) sperm. A multi-button tally, preferably a digital one, is used to differentially count such motility (for additional detail, see Chapter 23: Standardized semen analysis and quality control management for multicenter male reproductive toxicology clinical trials, Sikka S. C. et al., in Bioenvironmental Issues Affecting Men's Reproductive and Sexual Health, 2018, the contents of which are incorporated herein by reference in their entirety).
After 2 minutes of incubation with the formulation, the semen samples were collected and analyzed for sperm motility. […] Data were collected within 2 minutes after mixing the formulation in gel form, with fresh semen, so the effects are instantaneous. As for timing, the gel may be applied 15-20 minutes prior to intercourse to allow gelling to fully occur. Furthermore, the gel may not be efficacious after residing in the vagina for longer than 1 hour.

The next series can be described thus: physchem. The settings on record: 25 °C, water.
The mark [4] stands for this setting: 40° C./75% RH, 4 Weeks, closed vial.

In the case of `O=C(Nc1ccc([N+](=O)[O-])cc1Cl)c1cc(Cl)ccc1O` [niclosamide], the Solubility entry is given as “Nil” (pH 1.2); “Nil” (pH 2); “Nil” (pH 3); “Nil” (pH 4); “Nil” (pH 4.5); “Nil” (pH 5.1). The Solubility in the series “physchem” was determined as 5 µg/mL (≈ 15.3 µM). In addition, the maximum solubility in series [1] was 5 % w/w. In addition, the 50% effective concentration (EC50) with SARS-CoV-2 was 0.15 µM. Besides, the “solubility in studied buffers” value in series [2] is reported as “insoluble”. Besides, the Imp-3 in series [3] (setting [4]) was 0.026%; in series [3] (Initial) it was 0.029%. The Imp-4 in series [3] (setting [4]) is recorded as 0.012%; in series [3] (Initial), 0.009%. Further, in series [3] (setting [4]), the Imp-5 came to 0.014%. For the same molecule, the “Single Max Unk Imp” value is 0.007% in series [3] (setting [4]) and 0.010% in series [3] (Initial). In addition, the entries for the “Total Impurities” value in series [3] (setting [4]) and in series [3] (Initial) were 0.06% and 0.05%, respectively. Also, in the series on human sperm, the “Minimum dose to see effect (inhibits sperm motility)” value worked out at 4 mM. For the same molecule, the “Minimum dose to see effect (inhibits sperm motility), Amount (w/w)” value in the series on human sperm was 0.13%. Moreover, in the series with human sperm (Sperm, 2 min, 10 mM niclosamide, fresh human semen, within 2 minutes, relative to control, read-out: percentage (%) inhibition in sperm motility), the inhibition at 10000 µM is 100%. The “Concentration giving complete inhibition of sperm motility” value in the series with human sperm (semen sample vs control sample, 2 minutes incubation) was at least 10 mM.
